Data: US20140206534A1, “FORMULATION” (SYNGENTA LIMITED, priority 2011, published 2014)

Assays:
[1] = UV/Vis release rate measurement of Bitrex in water; type: physicochemical; conditions: 100 mg in 40 ml water, shaken
Protocol: 2 ml of the mixture was removed at each time interval for analysis.

[2] = Visual release rate test of Bitrex in water; type: physicochemical; conditions: after 15 minutes; 0.4 mg agitated in 10 ml water
Protocol: 0.4 mg of sample was agitated in 10 ml of water and observed over 8 hours.

CC[N+](CC)(CC(=O)Nc1c(C)cccc1C)Cc1ccccc1 [Uncoated Bitrex, Denatonium benzoate]
% release of Bitrex relative to the total content ([1]; 5 minutes): 99.6% | % release of Bitrex relative to the total content ([1]; 15 minutes): 99.8% | visual observation of dissolution [2]: fully dissolved
